Source: US8003660B2, “Modulators of muscarinic receptors” (Vertex Pharmaceuticals Incorporated, priority 2006, dated 2011)

Tests used:
Format in all cases: cell-based
M4 muscarinic receptor = target: T1, M4 muscarinic receptor (Homo sapiens, UniProt P08173); test: Functional mobilization of intracellular calcium (FLIPR) in CHO cells expressing M4; conditions: for M4 Activity: CHO cells expressing M4, FLIPR calcium assay; for Emax: CHO, 100% efficacy = maximum response obtained with the Carbachol control
T1 construct: expressed in transfected cells; host or cells: CHO (M4-CHO)
T1 sequence (P08173 1-479): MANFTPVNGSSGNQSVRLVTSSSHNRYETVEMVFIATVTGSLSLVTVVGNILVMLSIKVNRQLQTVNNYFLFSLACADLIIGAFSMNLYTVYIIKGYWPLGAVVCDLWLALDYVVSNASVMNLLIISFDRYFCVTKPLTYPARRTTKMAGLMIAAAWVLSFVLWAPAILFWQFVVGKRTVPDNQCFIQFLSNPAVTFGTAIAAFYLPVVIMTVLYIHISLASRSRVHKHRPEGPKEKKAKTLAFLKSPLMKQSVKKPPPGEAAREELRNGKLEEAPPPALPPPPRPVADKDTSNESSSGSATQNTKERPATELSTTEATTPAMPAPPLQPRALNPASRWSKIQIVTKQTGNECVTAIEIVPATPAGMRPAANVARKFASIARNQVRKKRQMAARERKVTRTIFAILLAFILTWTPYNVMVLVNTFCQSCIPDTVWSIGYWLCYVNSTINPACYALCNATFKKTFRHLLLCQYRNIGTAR
Summary of the method: (§1)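 Calcium flux is read on FLIPR over 60 sec at 488/540 nm in muscarinic-receptor CHO lines. Antagonist mode adds carbachol at EC80 after 15 min compound preincubation or with simultaneous co-application. Agonist mode adds compound alone. Cells carry Fluo-3 or Calcium 3 dye in probenecid-containing pH 7.4 buffer, 0.5% DMSO final.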

M2 muscarinic receptor = target: T2, M2 muscarinic receptor (Homo sapiens, UniProt P08172); test: Functional mobilization of intracellular calcium (FLIPR) in CHO cells expressing M2; conditions: for M2 Activity: CHO cells expressing M2, FLIPR calcium assay; for Emax: CHO, 100% efficacy = maximum response obtained with the Carbachol control
T2 construct: expressed in transfected cells; host or cells: CHO (M2-CHO)
T2 sequence (P08172 1-466): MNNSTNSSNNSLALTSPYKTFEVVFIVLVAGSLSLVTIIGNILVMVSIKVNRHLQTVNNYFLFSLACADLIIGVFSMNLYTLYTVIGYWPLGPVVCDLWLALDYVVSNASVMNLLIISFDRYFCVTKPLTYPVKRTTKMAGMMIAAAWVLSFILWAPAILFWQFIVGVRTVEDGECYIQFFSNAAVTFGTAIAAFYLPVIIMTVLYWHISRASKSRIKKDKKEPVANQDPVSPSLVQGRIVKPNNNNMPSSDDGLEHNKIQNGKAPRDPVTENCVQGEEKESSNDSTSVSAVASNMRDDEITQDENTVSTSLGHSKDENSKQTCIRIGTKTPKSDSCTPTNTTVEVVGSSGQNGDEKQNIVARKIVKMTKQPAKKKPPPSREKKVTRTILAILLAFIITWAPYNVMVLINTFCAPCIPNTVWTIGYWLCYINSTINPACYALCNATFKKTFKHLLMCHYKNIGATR
Summary of the method: as §1

M3 muscarinic receptor = target: T3, M3 muscarinic receptor (Homo sapiens, UniProt P20309); test: Functional mobilization of intracellular calcium (FLIPR) in CHO cells expressing M3; conditions: for M3 Activity: CHO cells expressing M3, FLIPR calcium assay; for Emax: CHO, 100% efficacy = maximum response obtained with the Carbachol control
T3 construct: expressed in transfected cells; host or cells: CHO (M3-CHO)
T3 sequence (P20309 whole entry): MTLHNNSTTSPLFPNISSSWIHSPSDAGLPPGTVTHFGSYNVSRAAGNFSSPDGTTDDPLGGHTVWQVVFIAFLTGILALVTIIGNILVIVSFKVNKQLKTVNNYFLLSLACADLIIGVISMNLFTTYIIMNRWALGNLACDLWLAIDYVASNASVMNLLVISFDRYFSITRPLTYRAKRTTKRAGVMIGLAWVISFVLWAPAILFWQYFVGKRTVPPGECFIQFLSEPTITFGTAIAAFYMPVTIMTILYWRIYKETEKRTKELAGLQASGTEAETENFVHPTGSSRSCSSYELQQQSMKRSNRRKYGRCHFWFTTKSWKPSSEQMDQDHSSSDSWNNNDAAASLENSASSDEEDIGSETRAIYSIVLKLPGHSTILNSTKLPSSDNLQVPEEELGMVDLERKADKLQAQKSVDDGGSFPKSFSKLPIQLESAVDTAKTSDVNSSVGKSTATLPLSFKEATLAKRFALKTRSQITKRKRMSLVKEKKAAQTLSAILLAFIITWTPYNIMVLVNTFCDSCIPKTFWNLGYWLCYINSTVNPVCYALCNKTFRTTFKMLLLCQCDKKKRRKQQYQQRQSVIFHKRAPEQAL
Summary of the method: as §1

M1 muscarinic receptor = target: T4, M1 muscarinic receptor (Homo sapiens, UniProt P11229); test: Functional mobilization of intracellular calcium (FLIPR) in CHO cells expressing M1; conditions: for M1 Activity: CHO cells expressing M1, FLIPR calcium assay; for Emax: CHO, 100% efficacy = maximum response obtained with the Carbachol control
T4 construct: expressed in transfected cells; host or cells: CHO (M1-CHO)
T4 sequence (P11229 1-460): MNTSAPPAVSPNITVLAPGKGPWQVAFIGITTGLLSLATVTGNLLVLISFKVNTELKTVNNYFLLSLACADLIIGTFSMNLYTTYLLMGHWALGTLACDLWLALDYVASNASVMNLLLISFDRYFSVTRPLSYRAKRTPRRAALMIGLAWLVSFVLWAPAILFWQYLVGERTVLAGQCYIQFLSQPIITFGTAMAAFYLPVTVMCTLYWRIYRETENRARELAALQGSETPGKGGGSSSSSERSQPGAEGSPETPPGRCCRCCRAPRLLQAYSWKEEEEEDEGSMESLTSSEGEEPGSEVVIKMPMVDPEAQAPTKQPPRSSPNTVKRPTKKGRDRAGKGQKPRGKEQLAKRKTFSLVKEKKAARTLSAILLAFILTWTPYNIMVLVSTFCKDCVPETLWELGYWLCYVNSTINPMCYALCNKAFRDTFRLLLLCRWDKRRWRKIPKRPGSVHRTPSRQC
Summary of the method: as §1

SMILES | M4 Activity (M4 muscarinic receptor) | Emax (M4 muscarinic receptor) [%] | M2 Activity (M2 muscarinic receptor) | Emax (M2 muscarinic receptor) [%] | M3 Activity (M3 muscarinic receptor) | Emax (M3 muscarinic receptor) [%] | M1 Activity (M1 muscarinic receptor) | Emax (M1 muscarinic receptor) [%]
COCCC(=O)N[C@@H]1CCC2(CCN(CCC(C)(C)C)CC2)c2cc(F)ccc21 [compound 212] | +++ (activity was measured to be less than 2.0 μM) | 25 to 100 | + (activity was measured to be greater than 5.0 μM) | < 25 | + (activity was measured to be greater than 5.0 μM) | < 25 | +++ (activity was measured to be less than 2.0 μM) | 25 to 100
CCN(C(C)=O)[C@H]1CCC2(CCN(CCC(C)C)CC2)c2ccccc21 [compound 213] | +++ (activity was measured to be less than 2.0 μM) | 25 to 100 | + (activity was measured to be greater than 5.0 μM) | < 25 | + (activity was measured to be greater than 5.0 μM) | < 25 | ++ (activity was measured to be from 2.0 μM to 5.0 μM) | 25 to 100
CC(C)(C)CCN1CCC2(CC[C@@H](NC(=O)C3CC3)c3ccc(F)cc32)CC1 [compound 214] | +++ (activity was measured to be less than 2.0 μM) | 25 to 100 | +++ (activity was measured to be less than 2.0 μM) | < 25 | + (activity was measured to be greater than 5.0 μM) | < 25 | +++ (activity was measured to be less than 2.0 μM) | 25 to 100
COCCC(=O)N[C@H]1CCC2(CCN(CCC(C)(C)C)CC2)c2cc(F)ccc21 [compound 215] | +++ (activity was measured to be less than 2.0 μM) | 25 to 100 | +++ (activity was measured to be less than 2.0 μM) | 25 to 100 | + (activity was measured to be greater than 5.0 μM) | < 25 | +++ (activity was measured to be less than 2.0 μM) | 25 to 100
Cc1cc(C(=O)N[C@@H]2CCC3(CCN(CCC(C)(C)C)CC3)c3ccccc32)nn1C [compound 216] | +++ (activity was measured to be less than 2.0 μM) | 25 to 100 | ++ (activity was measured to be from 2.0 μM to 5.0 μM) | 25 to 100 | + (activity was measured to be greater than 5.0 μM) | < 25 | ++ (activity was measured to be from 2.0 μM to 5.0 μM) | 25 to 100
CC(C)(C)CCN1CCC2(CC[C@@H](NC(=O)C3CCOCC3)c3ccc(F)cc32)CC1 [compound 217] | +++ (activity was measured to be less than 2.0 μM) | 25 to 100 | + (activity was measured to be greater than 5.0 μM) | < 25 | + (activity was measured to be greater than 5.0 μM) | < 25 | ++ (activity was measured to be from 2.0 μM to 5.0 μM) | 25 to 100
CC(=O)N(C)[C@H]1CCC2(CCN(CCC(C)(C)C)CC2)c2cc(F)ccc21 [compound 218] | +++ (activity was measured to be less than 2.0 μM) | 25 to 100 | +++ (activity was measured to be less than 2.0 μM) | < 25 | + (activity was measured to be greater than 5.0 μM) | < 25 | +++ (activity was measured to be less than 2.0 μM) | 25 to 100
Cn1cncc1C(=O)N[C@H]1CCC2(CCN(CCC(C)(C)C)CC2)c2ccccc21 [compound 219] | +++ (activity was measured to be less than 2.0 μM) | 25 to 100 | +++ (activity was measured to be less than 2.0 μM) | 25 to 100 | + (activity was measured to be greater than 5.0 μM) | < 25 | +++ (activity was measured to be less than 2.0 μM) | 25 to 100
CC(C)(C)CCN1CCC2(CC[C@@H](NC(=O)C3CCCO3)c3ccccc32)CC1 (stereo partly drawn) [compound 220] | +++ (activity was measured to be less than 2.0 μM) | 25 to 100 | + (activity was measured to be greater than 5.0 μM) | < 25 | + (activity was measured to be greater than 5.0 μM) | < 25 | + (activity was measured to be greater than 5.0 μM) | < 25
CCN(C(=O)CCOC)[C@H]1CCC2(CCN(CCC(C)(C)C)CC2)c2ccccc21 [compound 221] | +++ (activity was measured to be less than 2.0 μM) | 25 to 100 | + (activity was measured to be greater than 5.0 μM) | < 25 | + (activity was measured to be greater than 5.0 μM) | < 25 | ++ (activity was measured to be from 2.0 μM to 5.0 μM) | 25 to 100
CC(C)(C)CCN1CCC2(CC[C@H](N3CCCCC3=O)c3ccc(F)cc32)CC1 [compound 222] | +++ (activity was measured to be less than 2.0 μM) | 25 to 100 | + (activity was measured to be greater than 5.0 μM) | < 25 | + (activity was measured to be greater than 5.0 μM) | < 25 | +++ (activity was measured to be less than 2.0 μM) | 25 to 100
CCN(C(=O)Cc1ccncc1)[C@H]1CCC2(CCN(CCC(C)(C)C)CC2)c2ccccc21 [compound 223] | +++ (activity was measured to be less than 2.0 μM) | 25 to 100 | + (activity was measured to be greater than 5.0 μM) | < 25 | + (activity was measured to be greater than 5.0 μM) | < 25 | + (activity was measured to be greater than 5.0 μM) | 25 to 100
CC(C)(C)CCN1CCC2(CC[C@H](NC(=O)C(F)(F)F)c3ccccc32)CC1 [compound 224] | +++ (activity was measured to be less than 2.0 μM) | 25 to 100 | + (activity was measured to be greater than 5.0 μM) | < 25 | + (activity was measured to be greater than 5.0 μM) | < 25 | +++ (activity was measured to be less than 2.0 μM) | 25 to 100
CC(C)(C)CCN1CCC2(CC1)C[C@H](NC(=O)C1CCCC1)c1ccccc12 [compound 225] | + (activity was measured to be greater than 5.0 μM) | < 25 | + (activity was measured to be greater than 5.0 μM) | < 25 | + (activity was measured to be greater than 5.0 μM) | < 25 | + (activity was measured to be greater than 5.0 μM) | < 25
CCN(CC)C(=O)CN1CCC2(CC1)C[C@H](NC(C)=O)c1ccccc12 [compound 226] | + (activity was measured to be greater than 5.0 μM) | < 25 | + (activity was measured to be greater than 5.0 μM) | < 25 | + (activity was measured to be greater than 5.0 μM) | < 25 | + (activity was measured to be greater than 5.0 μM) | < 25
